Each structure is given as a SMILES string.

Assay [1] concerns HT-1080 cells expressing IDH1R132C. Description: 2-HG production inhibitory activity using HT1080 cell. Type of assay: cell-based, human. Particulars: Homo sapiens, HT-1080; 2-HG production, HT1080 cells; read-out: Test Example 3 IC50. Here is the method: Then, 100 μL of growth medium B was added to each well, further 25 μL of a solution of each compound diluted to a predetermined concentration with growth medium B was added to each well, and the cells were incubated at 37° C. for 2 days under 5% CO2. […] Then, 150 μL of ultrapure water was further added to each well, and the mixture was stirred by pipetting and stored at −20° C.
The preserved solutions were thawed at room temperature.

The next assay addresses IDH1R132C (Homo sapiens (Human), UniProt O75874, R132C). As to the kind of experiment: Inhibitory activity against IDH1R132C enzyme (NADPH detection, WST-8). The class given is biochemical. As to conditions: 10 nM, residual NADPH detected with WST-8, read-out: Test Example 1 IDH1 R132C IC50. The procedure:
After transformation of Rosetta 2 (DE3) E. coli, the expression of the protein was induced with IPTG.
While NADPH-derived fluorescence was occasionally monitored, the reaction was terminated by the addition of 5 μL of 0.5 M EDTA before consumption of NADPH. 5 μL of WST-8 reagent (Dojindo Laboratories, #CK04) was further added and mixed therewith. 15 minutes later, the absorbance at 450 nm was measured using a plate reader (PerkinElmer, Inc., EnVision). The observed absorbance value reflects the amount of residual NADPH. From the absorbance data, the enzyme inhibitory activity of each compound at each concentration was calculated and analyzed using medical statistical analysis software GraphPad Prism to calculate an IC50 value.

Chain of IDH1R132C (O75874 whole entry R132C): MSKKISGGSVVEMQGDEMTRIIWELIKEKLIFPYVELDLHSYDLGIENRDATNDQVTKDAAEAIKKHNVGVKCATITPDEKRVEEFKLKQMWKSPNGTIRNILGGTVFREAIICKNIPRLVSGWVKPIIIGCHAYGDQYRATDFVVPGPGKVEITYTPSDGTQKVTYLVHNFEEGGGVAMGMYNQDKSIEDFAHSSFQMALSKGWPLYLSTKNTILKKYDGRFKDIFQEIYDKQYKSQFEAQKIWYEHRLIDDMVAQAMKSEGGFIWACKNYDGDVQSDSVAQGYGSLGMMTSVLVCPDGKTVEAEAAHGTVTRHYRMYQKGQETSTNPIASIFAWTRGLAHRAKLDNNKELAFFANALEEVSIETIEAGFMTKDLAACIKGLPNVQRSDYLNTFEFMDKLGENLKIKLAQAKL

Consider `CC1(c2onc(-c3c(Cl)cccc3Cl)c2C(=O)n2ccc3c(/C=C/C(=O)O)cccc32)COC1` [Example 75, (2E)-3-(1-{[3-(2,6-Dichlorophenyl)-5-(3-methyloxetan-3-yl)-1,2-oxazol-4-yl]carbonyl}-1H-indol-4-yl)prop-2-enoic acid], for which the IC50 in assay [1] stood at 138 nM; at IDH1R132C it was 118 nM.
Taken in the same sequence, the figures for `COC1(c2onc(-c3c(Cl)cccc3Cl)c2C(=O)n2ccc3c(/C=C/C(=O)O)cccc32)COC1` [Example 76, (2E)-3-(1-{[3-(2,6-Dichlorophenyl)-5-(3-methoxyoxetan-3-yl)-1,2-oxazol-4-yl]carbonyl}-1H-indol-4-yl)prop-2-enoic acid] were 118 nM and 94 nM.
Taken in the same sequence, the figures for `CC1(c2onc(-c3c(Cl)cccc3Cl)c2C(=O)n2ccc3c(/C=C/C(=O)O)cccc32)CCO1` (centres unmarked) [Example 77, (2E)-3-(1-{[3-(2,6-Dichlorophenyl)-5-(2-methyloxetan-2-yl)-1,2-oxazol-4-yl]carbonyl}-1H-indol-4-yl)prop-2-enoic acid] were 428 nM and 94 nM.
Taken in the same sequence, the figures for `COCC1(c2onc(-c3c(Cl)cc(Cl)cc3Cl)c2C(=O)n2cc(C)c3c(/C=C/C(=O)O)cccc32)CCC1` [Example 80, (2E)-3-(1-{[5-[1-(Methoxymethyl)cyclobutyl]-3-(2,4,6-trichlorophenyl)-1,2-oxazol-4-yl]carbonyl}-3-methyl-1H-indol-4-yl)prop-2-enoic acid] were 99 nM and 335 nM.
`Cc1cn(C(=O)c2c(-c3c(Cl)cc(Cl)cc3Cl)noc2C2(N(C)C)CC2)c2cccc(/C=C/C(=O)O)c12` [Example 82, (2E)-3-(1-{[5-[1-(Dimethylamino)cyclopropyl]-3-(2,4,6-trichlorophenyl)-1,2-oxazol-4-yl]carbonyl}-3-methyl-1H-indol-4-yl)prop-2-enoic acid]: the IC50 was determined as 10 nM in assay [1] and 96 nM on IDH1R132C.
Taken in the same sequence, the figures for `CNC(C)(C)c1onc(-c2c(Cl)cc(Cl)cc2Cl)c1C(=O)n1cc(C)c2c(/C=C/C(=O)O)cccc21` [Example 84, (2E)-3-[3-Methyl-1-({5-[2-(methylamino)propan-2-yl]-3-(2,4,6-trichlorophenyl)-1,2-oxazol-4-yl]carbonyl}-1H-indol-4-yl)prop-2-enoic acid] were 15 nM and 80 nM.
Taken in the same sequence, the figures for `CNC(C)(C)c1onc(-c2c(Cl)cc(Cl)cc2Cl)c1C(=O)n1cc2c3c(cccc31)/C(=C/C(=O)O)CC2` [Example 85, (2E)-[1-({5-[2-(Methylamino)propan-2-yl]-3-(2,4,6-trichlorophenyl)-1,2-oxazol-4-yl}carbonyl)-3,4-dihydrobenzo[cd]indol-5(1H)-ylidene]ethanoic acid] were 9 nM and 99 nM.
Taken in the same sequence, the figures for `CNC1(c2onc(-c3c(Cl)cc(Cl)cc3Cl)c2C(=O)n2cc3c4c(cccc42)/C(=C/C(=O)O)CC3)CC1` [Example 86, (2E)-[1-({5-[1-(Methylamino)cyclopropyl]-3-(2,4,6-trichlorophenyl)-1,2-oxazol-4-yl}carbonyl)-3,4-dihydrobenzo[cd]indol-5(1H)-ylidene]ethanoic acid] were 33 nM and 79 nM.
For `Cc1cn(C(=O)c2c(-c3c(Cl)cc(Cl)cc3Cl)noc2C2(CN(C)C)CCC2)c2cccc(/C=C/C(=O)O)c12` [Example 88, (2E)-3-(1-{[5-{1-[(Dimethylamino)methyl]cyclobutyl}-3-(2,4,6-trichlorophenyl)-1,2-oxazol-4-yl]carbonyl}-3-methyl-1H-indol-4-yl)prop-2-enoic acid], the IC50 in assay [1] was 61 nM; on IDH1R132C it was 158 nM.
Taken in the same sequence, the figures for `Cc1cn(C(=O)c2c(-c3c(Cl)cc(Cl)cc3Cl)noc2C2(C(=O)N(C)C)CCC2)c2cccc(/C=C/C(=O)O)c12` [Example 89, (2E)-3-(1-{[5-[1-(Dimethylcarbamoyl)cyclobutyl]-3-(2,4,6-trichlorophenyl)-1,2-oxazol-4-yl]carbonyl}-3-methyl-1H-indol-4-yl)prop-2-enoic acid] were 37 nM and 185 nM.
Taken in the same sequence, the figures for `Cc1cn(C(=O)c2c(-c3c(Cl)cc(Cl)cc3Cl)noc2C2(N)CCC2)c2cccc(/C=C/C(=O)O)c12` [Example 90, (2E)-3-(1-{[5-(1-Aminocyclobutyl)-3-(2,4,6-trichlorophenyl)-1,2-oxazol-4-yl]carbonyl}-3-methyl-1H-indol-4-yl)prop-2-enoic acid] were 36 nM and 59 nM.
Taken in the same sequence, the figures for `Cc1cn(C(=O)c2c(-c3c(Cl)cc(Cl)cc3Cl)noc2C(C)(C)N(C)C)c2cccc(/C=C/C(=O)O)c12` [Example 91, (2E)-3-[1-({5-[2-(Dimethylamino)propan-2-yl]-3-(2,4,6-trichlorophenyl)-1,2-oxazol-4-yl}carbonyl)-3-methyl-1H-indol-4-yl]prop-2-enoic acid] were 23 nM and 120 nM.
As to `CN(C)C1(c2onc(-c3c(Cl)cc(Cl)cc3Cl)c2C(=O)n2cc3c4c(cccc42)/C(=C/C(=O)O)CC3)CC1` [Example 92], the IC50 in assay [1] is 9 nM; at IDH1R132C, 80 nM.
Taken in the same sequence, the figures for `C=CC(=O)N1CCCC(c2onc(-c3c(Cl)cc(Cl)cc3Cl)c2C(=O)n2ccc3c(/C=C/C(=O)O)cccc32)C1` (centres unmarked) [Example 96] were 290 nM and 422 nM.
As for `C=CC(=O)N1CC(OC)(c2onc(-c3c(Cl)cc(Cl)cc3Cl)c2C(=O)n2ccc3c(/C=C/C(=O)O)cccc32)C1` [Example 97], the IC50 in assay [1] was found to be 162 nM; on IDH1R132C it was 164 nM.
Consider `C=CC(=O)N1CC(C)(c2onc(-c3c(Cl)cc(Cl)cc3Cl)c2C(=O)n2ccc3c(/C=C/C(=O)O)cccc32)C1` [Example 98], for which the results for the IC50 (in assay [1]; on IDH1R132C) were 34 nM and 116 nM, respectively.
On the same counts, the results for `C#CC(=O)N1CC(c2onc(-c3c(Cl)cc(Cl)cc3Cl)c2C(=O)n2ccc3c(/C=C/C(=O)O)cccc32)C1` [Example 101] are 32 nM and 189 nM.
Taken in the same sequence, the figures for `C=CC(=O)N1CCC(c2onc(-c3c(Cl)cccc3Cl)c2C(=O)n2ccc3c(/C=C/C(=O)O)cccc32)CC1` [Example 102] were 50 nM and 117 nM.
On to `C=CC(=O)N1CCC(C)(c2onc(-c3c(Cl)cc(Cl)cc3Cl)c2C(=O)n2ccc3c(/C=C/C(=O)O)cccc32)CC1` [Example 111], for which the IC50 in assay [1] amounted to 10 nM; on IDH1R132C it was 188 nM.
On the same counts, the results for `C=CC(=O)N1CCC(O)(c2onc(-c3c(Cl)cc(Cl)cc3Cl)c2C(=O)n2cc(C)c3c(/C=C/C(=O)O)cccc32)CC1` [Example 123] are 13 nM and 149 nM.
On the same counts, the results for `C=CC(=O)N1CC2C(C1)C2c1onc(-c2c(Cl)cc(Cl)cc2Cl)c1C(=O)n1cc(C)c2c(/C=C/C(=O)O)cccc21` (centres unmarked) [Example 124] are 22 nM and 125 nM.
On the same counts, the results for `C=CC(=O)N1CCC(c2onc(-c3c(Cl)cc(Cl)cc3Cl)c2C(=O)n2cc(C)c3c(/C=C/C(=O)O)cccc32)(N(C)C)CC1` [Example 126] are 8 nM and 149 nM.
`C=CC(=O)N1CCC(c2onc(-c3ccc(Cl)c(F)c3Cl)c2C(=O)n2cc(C)c3c(/C=C/C(=O)O)cccc32)CC1` [Example 129]: the results for the IC50 (in assay [1]; at IDH1R132C) were 10 nM and 182 nM, respectively.
On the same counts, the results for `C=CC(=O)N1CCC(c2noc(-c3c(Cl)cc(Cl)cc3Cl)c2C(=O)n2ccc3c(/C=C/C(=O)O)cccc32)CC1` [Example 132, (2E)-3-(1-{[3-(1-Acryloylpiperidin-4-yl)-5-(2,4,6-trichlorophenyl)-1,2-oxazol-4-yl]carbonyl}-1H-indol-4-yl)prop-2-enoic acid] are 28 nM and 279 nM.
Taken in the same sequence, the figures for `CN(C)c1onc(-c2c(Cl)cccc2Cl)c1C(=O)n1ccc2c(/C=C/C(=O)O)cccc21` [Example 133, (2E)-3-(1-{[3-(2,6-Dichlorophenyl)-5-(dimethylamino)-1,2-oxazol-4-yl]carbonyl}-1H-indol-4-yl)prop-2-enoic acid] were 390 nM and 93 nM.
Regarding `CCN(CC)c1onc(-c2c(Cl)cccc2Cl)c1C(=O)n1ccc2c(/C=C/C(=O)O)cccc21` [Example 134, (2E)-3-(1-{[3-(2,6-Dichlorophenyl)-5-(diethylamino)-1,2-oxazol-4-yl]carbonyl}-1H-indol-4-yl)prop-2-enoic acid], the IC50 in assay [1] was 347 nM; on IDH1R132C, 143 nM.
On the same counts, the results for `O=C(O)/C=C/c1cccc2c1ccn2C(=O)c1c(-c2c(Cl)cccc2Cl)noc1N1CCCC1` [Example 135, (2E)-3-(1-{[3-(2,6-Dichlorophenyl)-5-(pyrrolidin-1-yl)-1,2-oxazol-4-yl]carbonyl}-1H-indol-4-yl)prop-2-enoic acid] are 376 nM and 122 nM.
Taken in the same sequence, the figures for `O=C(O)/C=C/c1cccc2c1ccn2C(=O)c1c(-c2c(Cl)cccc2Cl)noc1N1CCOCC1` [Example 136, (2E)-3-(1-{[3-(2,6-Dichlorophenyl)-5-(morpholin-4-yl)-1,2-oxazol-4-yl]carbonyl}-1H-indol-4-yl)prop-2-enoic acid] were 335 nM and 140 nM.

These data come from patent US10040791B2, “Isoxazole derivative as mutant isocitrate dehydrogenase 1 inhibitor” (Daiichi Sankyo Company, Limited, priority 2014, dated 2018).
